Values quoted from earlier work in patent US6831088B2, “3-heterocyclypropanohydroxamic acid PCP inhibitors” (Pfizer Inc., priority 2001, dated 2004).
Read-outs that look alike come from different tables or passages of the source.

System: PCP

## [Cl-].[Na+] [NaCl]
0.2M NaCl
  activity of PCP relative to that observed with the standard assay concentration of 0.15M: 66%
0.3M NaCl
  activity of PCP relative to that observed with the standard assay concentration of 0.15M: 38%
0.5M NaCl
  activity of PCP relative to that observed with the standard assay concentration of 0.15M: 25%
